According to article PMC8134453:
“Also recorded” adds a separate entry of the source. Like-named read-outs stand apart in the source and are kept apart here.

Key:
[1] = no reference given; cited from earlier work
[2] = biological target: T1, Jack bean (JB) urease (Canavalia ensiformis, UniProt P07374); assay: Urease inhibition, modified Berthelot spectrophotometric method; assay type: biochemical
T1 construct: purchased Sigma-Aldrich (USA)
Experimental: All used material and JB urease (EC 3.5.1.5) were purchased from Sigma–Aldrich (USA). Potassium phosphate buffer (PPB) solution with concentration 100 mM and pH = 7.4 was prepared in distilled water. […] The enzymatic reactions were performed in PPB solution which reach to the 985 μL by adding urea (850 μL) and the synthesized compound (100 μL, 0–10 mg/mL). Then, urease (15 μL) was added and the concentration of liberated ammonia was measured after 60 min. The corresponding concentration of ammonia was determined by addition of the incubated solution (100 μL) to the mixture of 500 μL of solution I (5.0 g phenol and 25.0 mg sodium nitroprusside in 500 mL water) and 500 μL of solution II (2.5 g sodium hydroxide and 4.2 mL sodium hypochlorite (5% chlorine) in 500 mL water) which was incubated at 37 °C for 30 min. The absorbance was obtained by measuring indophenols. The activity of uninhibited JB urease was considered as the control activity of 100%. The inhibition assays were conducted according to this formula: I (%) = [1 − (T/C)] × 100; where I (%) is the enzyme inhibition, T (test) is the absorbance of the analyzed compounds in the presence of urease solution, and C (control) is the absorbance of the solvent in the presence of urease solution. Data were expressed as mean ± […] and run in triplicate. […] Thiourea and hydroxyurea were used as the standard inhibitors for urease.

[3] = biological target: T1, Jack bean (JB) urease; assay: Urease kinetic study (Lineweaver–Burk plots); assay type: biochemical
Experimental: The inhibition mode and Ki value were determined by Lineweaver–Burk plots and secondary re-plotting of the mentioned plots, respectively.
All used material and JB urease (EC 3.5.1.5) were purchased from Sigma–Aldrich (USA). Potassium phosphate buffer (PPB) solution with concentration 100 mM and pH = 7.4 was prepared in distilled water. […] The enzymatic reactions were performed in PPB solution which reach to the 985 μL by adding urea (850 μL) and the synthesized compound (100 μL, 0–10 mg/mL). Then, urease (15 μL) was added and the concentration of liberated ammonia was measured after 60 min. The corresponding concentration of ammonia was determined by addition of the incubated solution (100 μL) to the mixture of 500 μL of solution I (5.0 g phenol and 25.0 mg sodium nitroprusside in 500 mL water) and 500 μL of solution II (2.5 g sodium hydroxide and 4.2 mL sodium hypochlorite (5% chlorine) in 500 mL water) which was incubated at 37 °C for 30 min. The absorbance was obtained by measuring indophenols. The activity of uninhibited JB urease was considered as the control activity of 100%. The inhibition assays were conducted according to this formula: I (%) = [1 − (T/C)] × 100; where I (%) is the enzyme inhibition, T (test) is the absorbance of the analyzed compounds in the presence of urease solution, and C (control) is the absorbance of the solvent in the presence of urease solution. Data were expressed as mean ± standard error (SD) and run in triplicate. […] Thiourea and hydroxyurea were used as the standard inhibitors for urease.

[4] = Jack bean urease, mean ± standard error of the mean, at least three experiments, read-out: IC50 against urease

T1 sequence (P07374 whole entry, looked up): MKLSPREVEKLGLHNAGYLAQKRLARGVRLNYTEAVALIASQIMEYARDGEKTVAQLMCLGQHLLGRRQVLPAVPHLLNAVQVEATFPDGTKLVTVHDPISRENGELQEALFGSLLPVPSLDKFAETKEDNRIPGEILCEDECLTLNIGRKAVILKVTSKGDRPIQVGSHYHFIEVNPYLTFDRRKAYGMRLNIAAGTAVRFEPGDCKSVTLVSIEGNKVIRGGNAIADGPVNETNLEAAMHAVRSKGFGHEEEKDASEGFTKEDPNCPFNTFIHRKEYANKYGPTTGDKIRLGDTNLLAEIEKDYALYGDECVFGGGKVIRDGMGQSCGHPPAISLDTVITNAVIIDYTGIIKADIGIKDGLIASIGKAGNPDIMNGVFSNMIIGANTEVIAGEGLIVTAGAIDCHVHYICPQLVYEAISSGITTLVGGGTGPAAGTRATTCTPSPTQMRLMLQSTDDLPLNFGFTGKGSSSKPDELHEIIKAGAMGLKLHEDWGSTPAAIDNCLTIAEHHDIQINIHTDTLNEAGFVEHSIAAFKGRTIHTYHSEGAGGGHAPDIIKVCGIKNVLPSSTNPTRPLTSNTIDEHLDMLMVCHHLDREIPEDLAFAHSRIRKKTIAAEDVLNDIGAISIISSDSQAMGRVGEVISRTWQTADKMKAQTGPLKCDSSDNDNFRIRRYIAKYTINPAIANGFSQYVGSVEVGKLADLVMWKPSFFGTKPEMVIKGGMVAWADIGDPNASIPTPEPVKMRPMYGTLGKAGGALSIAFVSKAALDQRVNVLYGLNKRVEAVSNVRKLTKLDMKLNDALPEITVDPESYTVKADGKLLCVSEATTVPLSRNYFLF

Row | Compound | IC50 [2, 4] | other results
1 | NC(=O)NO [Hydroxyurea, reference compound] | 100 ± 0.15 µM | experimental solubility [1]: 100 mg/mL
2 | CN1C(=O)C(=CN/N=C/c2cc(Cl)ccc2[N+](=O)[O-])C(=O)N(C)C1=O [Compound 7l, (E)-5-((2-(5-chloro-2-nitrobenzylidene)hydrazinyl)methylene)-1,3-dimethylpyrimidine-2,4,6(1H,3H,5H)-trione] | 1.34 ± 0.12 µM | 
3 | CN1C(=O)C(=CN/N=C/c2cccc(Cl)c2Cl)C(=O)N(C)C1=O [Compound 7j, (E)-5-((2-(2,3-dichlorobenzylidene)hydrazinyl)methylene)-1,3-dimethylpyrimidine-2,4,6(1H,3H,5H)-trione] | 4.52 ± 0.31 µM | 
4 | CN1C(=O)C(=CN/N=C/c2ccccc2O)C(=O)N(C)C1=O [Compound 7b, (E)-5-((2-(2-hydroxybenzylidene)hydrazinyl)methylene)-1,3-dimethylpyrimidine-2,4,6(1H,3H,5H)-trione] | 3.09 ± 0.13 µM | 
5 | CN1C(=O)C(=CN/N=C/c2ccccc2[N+](=O)[O-])C(=O)N(C)C1=O [Compound 7h, (E)-1,3-dimethyl-5-((2-(2-nitrobenzylidene)hydrazinyl)methylene)pyrimidine-2,4,6(1H,3H,5H)-trione] |  | melting point: 178 to 180 °C; Ki [3]: 0.82 µM; inhibition mode ([3]; Lineweaver–Burk plot): mixed-type inhibitor; also recorded: mix-mode inhibitor; IC50 [2]: 0.61 ± 0.06 µM; activity fold superior to parent phenyl derivative 7a ([2]; ratio of urease IC50 values): 7.2 fold; times more potent than thiourea ([2]; ratio of urease IC50 values): 37.7 times
6 | CN1C(=O)C(=CN/N=C/c2ccc(O)cc2O)C(=O)N(C)C1=O [Compound 7c, (E)-5-((2-(2,4-dihydroxybenzylidene)hydrazinyl)methylene)-1,3-dimethylpyrimidine-2,4,6(1H,3H,5H)-trione] | 1.2 ± 0.05 µM | 
7 | CN1C(=O)C(=CN/N=C/c2cccc(Oc3ccccc3)c2)C(=O)N(C)C1=O [Compound 7e, (E)-1,3-dimethyl-5-((2-(3-phenoxybenzylidene)hydrazinyl)methylene)pyrimidine-2,4,6(1H,3H,5H)-trione] | 2.85 ± 0.23 µM | 
8 | COc1cc(/C=N/NC=C2C(=O)N(C)C(=O)N(C)C2=O)cc(OC)c1OC [Compound 7d, (E)-1,3-dimethyl-5-((2-(3,4,5-trimethoxybenzylidene)hydrazinyl)methylene)pyrimidine-2,4,6(1H,3H,5H)-trione] | 2.53 ± 0.11 µM | 
9 | CN1C(=O)C(=CN/N=C/c2cccc3ccccc23)C(=O)N(C)C1=O [Compound 7o, (E)-1,3-dimethyl-5-((2-(naphthalen-1-ylmethylene)hydrazinyl)methylene)pyrimidine-2,4,6(1H,3H,5H)-trione] |  | IC50 [2]: 1.94 ± 0.22 µM
10 | CN1C(=O)C(=CN/N=C/c2ccccc2)C(=O)N(C)C1=O [Compound 7a, (E)-5-((2-benzylidenehydrazinyl)methylene)-1,3-dimethylpyrimidine-2,4,6(1H,3H,5H)-trione] | 4.43 ± 0.21 µM | 
11 | CN1C(=O)C(=CN/N=C/c2ccc([N+](=O)[O-])cc2)C(=O)N(C)C1=O [Compound 7i, (E)-1,3-dimethyl-5-((2-(4-nitrobenzylidene)hydrazinyl)methylene)pyrimidine-2,4,6(1H,3H,5H)-trione] | 1.31 ± 0.09 µM | decrease of inhibitory activity relative to 2-nitro derivative 7h ([2]; urease IC50 compared with 7h): about two
12 | CN1C(=O)C(=CN/N=C/c2cccc(Br)c2)C(=O)N(C)C1=O [Compound 7g, (E)-5-((2-(3-bromobenzylidene)hydrazinyl)methylene)-1,3-dimethylpyrimidine-2,4,6(1H,3H,5H)-trione] | 3.62 ± 0.19 µM | 
13 | CN1C(=O)C(=CN/N=C/c2ccc(Cl)s2)C(=O)N(C)C1=O [Compound 7n, (E)-5-((2-((5-chlorothiophen-2-yl)methylene)hydrazinyl)methylene)-1,3-dimethylpyrimidine-2,4,6(1H,3H,5H)-trione] | 4.56 ± 0.18 µM | 
14 | CN1C(=O)C(=CN/N=C/c2cccs2)C(=O)N(C)C1=O [Compound 7m, (E)-1,3-dimethyl-5-((2-(thiophen-2-ylmethylene)hydrazinyl)methylene)pyrimidine2,4,6(1H,3H,5H)-trione] | 0.86 ± 0.08 µM | 
15 | CN1C(=O)C(=CN/N=C/c2ccc(Cl)cc2)C(=O)N(C)C1=O [Compound 7f, (E)-5-((2-(4-chlorobenzylidene)hydrazinyl)methylene)-1,3-dimethylpyrimidine-2,4,6(1H,3H,5H)-trione] | 3.56 ± 0.16 µM | 
16 | CN1C(=O)C(=CN/N=C/c2cc([N+](=O)[O-])ccc2Cl)C(=O)N(C)C1=O [Compound 7k, (E)-5-((2-(2-chloro-5-nitrobenzylidene)hydrazinyl)methylene)-1,3-dimethylpyrimidine 2,4,6(1H,3H,5H)-trione] | 3.94 ± 0.25 µM | 
17 | NC(N)=S [Thiourea, reference compound] | 23 ± 1.7 µM | 
